Experimental data as given in the NIST ThermoML archive (doi:10.1021/je900643r).

Legend:
[1] = xn = mol fraction of the nth substance listed; conditions: 298.15 K; for surface tension liquid-gas: Drop volume; for mass density: 101 kPa, Liquid
[2] = 298.15 K; for surface tension liquid-gas: Drop volume; for mass density: 101.33 kPa, Liquid

Cc1ccc(C)cc1 [1,4-dimethylbenzene] + CCCCCC
[1]
Conditions	mass density [kg/m3]	surface tension liquid-gas [mN/m]
x2 = 0.0393	848.42	–
x2 = 0.0535	–	26.84
x2 = 0.0718	–	26.58
x2 = 0.0869	838.63	–
x2 = 0.1265	–	25.76
x2 = 0.1341	–	25.66
x2 = 0.1535	824.96	–
x2 = 0.208	813.78	–
x2 = 0.3063	793.59	–
x2 = 0.3083	–	23.45
x2 = 0.3397	–	23.1
x2 = 0.3524	784.21	–
x2 = 0.399	–	22.47
x2 = 0.4333	767.75	–
x2 = 0.467	–	21.81
x2 = 0.4867	756.93	–
x2 = 0.492	–	21.59
x2 = 0.5267	–	21.29
x2 = 0.5404	746.02	–
x2 = 0.5836	737.32	–
x2 = 0.6034	–	20.67
x2 = 0.638	726.41	–
x2 = 0.6394	–	20.39
x2 = 0.6877	–	20.07
x2 = 0.6903	715.94	–
x2 = 0.7826	–	19.41
x2 = 0.7872	696.69	–
x2 = 0.8126	–	19.22
x2 = 0.8297	688.25	–
x2 = 0.8798	–	18.79
x2 = 0.8952	675.28	–
x2 = 0.9417	666.19	–

CCCOC(=O)CC [propyl propanoate]
[2]
Conditions	mass density [kg/m3]	surface tension liquid-gas [mN/m]
–	875.53	24.1

CCCCCC [hexane]
[2]
Conditions	mass density [kg/m3]	surface tension liquid-gas [mN/m]
–	654.7	17.91

Cc1ccc(C)cc1 [1,4-dimethylbenzene]
[2]
Conditions	mass density [kg/m3]	surface tension liquid-gas [mN/m]
–	856.51	27.7
